Holding throughout (format): functional
The subject of assay [1] is Bacillus subtilis. Description: Antibacterial activity against Bacillus subtilis ATCC 6633 incubated for 18 to 24 hrs by CLSI based microdilution broth method. As to conditions: time 18-24 hrs.
The subject of assay [2] is Enterococcus faecalis. The assay can be described thus: Antibacterial activity against Enterococcus faecalis ATCC 19433 incubated for 18 to 24 hrs by CLSI based microdilution broth method. The conditions noted are these: time 18-24 hrs. In general terms: In broth dilution the organism is exposed to a series of concentrations in liquid medium.
Assay [3] relates to Streptococcus pyogenes. Description: Antibacterial activity against Streptococcus pyogenes ATCC 12344 incubated for 18 to 24 hrs by CLSI based microdilution broth method. The conditions noted are these: time 18-24 hrs.
In assay [4] the test system is Staphylococcus aureus. The assay can be described thus: Antibacterial activity against Staphylococcus aureus ATCC 25923 incubated for 18 to 24 hrs by CLSI based microdilution broth method. As to conditions: time 18-24 hrs.
The subject of assay [5] is Escherichia coli. The assay can be described thus: Antibacterial activity against Escherichia coli CCUGT incubated for 18 to 24 hrs by CLSI based microdilution broth method. As to conditions: Escherichia coli, CCUGT; time 18-24 hrs; read-out: MIC.
In assay [6] the test system is Klebsiella pneumoniae. Description: Antibacterial activity against Klebsiella pneumoniae ATCC 13833 incubated for 18 to 24 hrs by CLSI based microdilution broth method. The conditions noted are these: Klebsiella pneumoniae, ATCC 13833; time 18-24 hrs; read-out: MIC.
In assay [7] the test system is Acinetobacter baumannii. Description: Antibacterial activity against Acinetobacter baumannii ATCC 17978 incubated for 18 to 24 hrs by CLSI based microdilution broth method. The conditions noted are these: Acinetobacter baumannii, ATCC 17978; time 18-24 hrs.
Assay [8] has as its system Pseudomonas aeruginosa. The assay can be described thus: Antibacterial activity against Pseudomonas aeruginosa ATCC 27853 incubated for 18 to 24 hrs by CLSI based microdilution broth method. The conditions noted are these: Pseudomonas aeruginosa, ATCC 27853; time 18-24 hrs.

Values after ≈ are worked out from the molar mass of the structure shown.

The text below walks through data of ChEMBL document CHEMBL5500347, “An update on antibacterial AlkylGuanidino Ureas: Design of new derivatives, synergism with colistin and data analysis of the whole library” (2024).

One may read the MIC as the smallest concentration in the dilution series that meets the test's criterion for growth inhibition. For `CCCCCCCCCC(=O)N[C@@H](Cc1c[nH]c2ccccc12)C(=O)N[C@H](CC(N)=O)C(=O)N[C@@H](CC(=O)O)C(=O)N[C@@H]1C(=O)NCC(=O)N[C@@H](CCCN)C(=O)N[C@@H](CC(=O)O)C(=O)N[C@H](C)C(=O)N[C@@H](CC(=O)O)C(=O)NCC(=O)N[C@H](CO)C(=O)N[C@@H]([C@H](C)CC(=O)O)C(=O)N[C@@H](CC(=O)c2ccccc2N)C(=O)O[C@@H]1C`, the MIC worked out at 1 µg/mL (≈ 0.617 µM) in assay [1], 1 µg/mL (≈ 0.617 µM) in assay [2], 0.5 µg/mL (≈ 0.309 µM) in assay [3] and 0.12 µg/mL (≈ 0.074 µM) in assay [4].

For the compound `N=C(N)NCCCCCCCCN(CCCCCCCCNC(=N)NCC1CC1)C(=O)N(CCCCCCCCNC(=N)NCC1CC1)CCCCCCNC(=N)N.O=C(O)C(F)(F)F`, the MIC in assay [1] was determined as 0.5 µg/mL; in assay [2], 1 µg/mL; in assay [3], 0.5 µg/mL; in assay [4] it was 0.25 µg/mL; in assay [5], 1 µg/mL; in assay [6] it was 1 µg/mL. In addition, the MIC in assay [7] and in assay [8] was 16 µg/mL each time.

Consider `CNC(=O)NCCCCCCCCN(CCCCCCCCNC(=N)NCC1CC1)C(=O)N(CCCCCCCCNC(=N)NCC1CC1)CCCCCCCCNC(=O)NC.O=C(O)C(F)(F)F`, for which the MIC in assay [1] amounted to 4 µg/mL; in assay [2], 8 µg/mL; in assay [3], 4 µg/mL; in assay [4], 4 µg/mL; in assay [5] it was 16 µg/mL; in assay [6], 16 µg/mL. For the same compound, the MIC is 64 µg/mL in assay [7] and 128 µg/mL in assay [8].

In the case of `N=C(N)NCCCCCCCCN(CCCCCCCCNC(=N)NCCC12CC3CC(CC(C3)C1)C2)C(=O)N(CCCCCCCCNC(=N)N)CCCCCCCCNC(=N)NCCC12CC3CC(CC(C3)C1)C2.O=C(O)C(F)(F)F`, the MIC was found to be 16 µg/mL in assay [1]; 16 µg/mL in assay [2]; 16 µg/mL in assay [3]; 8 µg/mL in assay [4]; 32 µg/mL in assay [5]; 32 µg/mL in assay [6]. The MIC was determined as 64 µg/mL in assay [7] and 128 µg/mL in assay [8].

With `N=C(N)NCCCCCCCN(CCCCCCCNC(=N)NCC1CC1)C(=O)N(CCCCCCCNC(=N)N)CCCCCCCNC(=N)NCC1CC1.O=C(O)C(F)(F)F`, the MIC turned out to be 2 µg/mL in assay [1]; 8 µg/mL in assay [2]; 4 µg/mL in assay [3]; 2 µg/mL in assay [4]; 8 µg/mL in assay [5]; 8 µg/mL in assay [6]. The MIC in assay [7] and in assay [8] was 32 µg/mL each time.

`N=C(N)NCCCCCCCCN(CCCCCCCCNC(=N)NCC1CC1)C(=O)N(CCCCCCNC(=N)N)CCCCCCNC(=N)NCC1CC1.O=C(O)C(F)(F)F`: the MIC in assay [1] was 2 µg/mL; in assay [2] it was 4 µg/mL; in assay [3], 1 µg/mL; in assay [4] it was 0.5 µg/mL; in assay [5] it was 8 µg/mL; in assay [6], 4 µg/mL. Besides, the MIC in assay [7] and in assay [8] was 16 µg/mL throughout.

`N=C(N)NCCCCCCCCN(CCCCCCCCNC(=N)NCCN1CCOCC1)C(=O)N(CCCCCCCCNC(=N)N)CCCCCCCCNC(=N)NCCN1CCOCC1.O=C(O)C(F)(F)F`: the MIC turned out to be 1 µg/mL in assay [1]; 2 µg/mL in assay [2]; 1 µg/mL in assay [3]; 1 µg/mL in assay [4]; 4 µg/mL in assay [5]; 4 µg/mL in assay [6]. Besides, the MIC in assay [7] amounted to 32 µg/mL; in assay [8] it was 64 µg/mL.

Take `COCCNC(=N)NCCCCCCCCN(CCCCCCCCNC(=N)N)C(=O)N(CCCCCCCCNC(=N)N)CCCCCCCCNC(=N)NCCOC.O=C(O)C(F)(F)F`: the MIC in assay [1] was found to be 0.5 µg/mL; in assay [2] it was 1 µg/mL; in assay [3], 0.5 µg/mL; in assay [4] it was 0.5 µg/mL; in assay [5], 1 µg/mL; in assay [6] it was 2 µg/mL. Further, the MIC amounted to 8 µg/mL in assay [7] and 16 µg/mL in assay [8].

As to `CC(C)CNC(=N)NCCCCCCCCN(CCCCCCCCNC(=N)N)C(=O)N(CCCCCCCCNC(=N)N)CCCCCCCCNC(=N)NCC(C)C.O=C(O)C(F)(F)F`, the MIC in assay [1] was 2 µg/mL; in assay [2] it was 4 µg/mL; in assay [3], 4 µg/mL; in assay [4], 2 µg/mL; in assay [5], 4 µg/mL; in assay [6], 4 µg/mL. In addition, the MIC in assay [7] stood at 8 µg/mL; in assay [8], 16 µg/mL.

As to `N=C(N)NCCCCCCCN(CCCCCCCNC(=N)NCC1CC1)C(=O)N(CCCCCCNC(=N)N)CCCCCCNC(=N)NCC1CC1.O=C(O)C(F)(F)F`, the MIC in assay [1] worked out at 2 µg/mL; in assay [2], 4 µg/mL; in assay [3], 4 µg/mL; in assay [4] it was 1 µg/mL; in assay [5], 16 µg/mL; in assay [6], 8 µg/mL. In addition, the MIC in assay [7] and in assay [8] was 32 µg/mL throughout.

For `CNC(=S)NCCCCCCCCN(CCCCCCCCNC(=N)NCC1CC1)C(=O)N(CCCCCCCCNC(=N)NCC1CC1)CCCCCCCCNC(=S)NC.O=C(O)C(F)(F)F`, the MIC in assay [1] was determined as 4 µg/mL; in assay [2], 4 µg/mL; in assay [3], 4 µg/mL; in assay [4] it was 2 µg/mL; in assay [5], 8 µg/mL; in assay [6], 16 µg/mL. For the same compound, the MIC in assay [7] is 128 µg/mL; in assay [8] it was 64 µg/mL.

`CCCNC(=N)NCCCCCCCCN(CCCCCCCCNC(=N)N)C(=O)N(CCCCCCCCNC(=N)N)CCCCCCCCNC(=N)NCCC.O=C(O)C(F)(F)F`: the MIC is 1 µg/mL in assay [1]; 1 µg/mL in assay [2]; 1 µg/mL in assay [3]; 0.5 µg/mL in assay [4]; 0.5 µg/mL in assay [5]; 1 µg/mL in assay [6]. Besides, the minimum inhibitory concentration (MIC) in assay [7] and in assay [8] was 8 µg/mL in each case.

Turning to `CSCCNC(=N)NCCCCCCCCN(CCCCCCCCNC(=N)N)C(=O)N(CCCCCCCCNC(=N)N)CCCCCCCCNC(=N)NCCSC.O=C(O)C(F)(F)F`, the MIC came to 1 µg/mL in assay [1]; 2 µg/mL in assay [2]; 1 µg/mL in assay [3]; 0.5 µg/mL in assay [4]; 2 µg/mL in assay [5]; 4 µg/mL in assay [6]. The minimal inhibitory concentration (MIC) came to 16 µg/mL in assay [7] and 32 µg/mL in assay [8].

With `CCCCNC(=N)NCCCCCCCCN(CCCCCCCCNC(=N)N)C(=O)N(CCCCCCCCNC(=N)N)CCCCCCCCNC(=N)NCCCC.O=C(O)C(F)(F)F`, the MIC in assay [1] came to 1 µg/mL; in assay [2], 2 µg/mL; in assay [3], 2 µg/mL; in assay [4], 1 µg/mL; in assay [5], 2 µg/mL; in assay [6] it was 2 µg/mL. Moreover, the MIC in assay [7] turned out to be 4 µg/mL; in assay [8], 8 µg/mL.

On to `C/C=C/CNC(=N)NCCCCCCCCN(CCCCCCCCNC(=N)N)C(=O)N(CCCCCCCCNC(=N)N)CCCCCCCCNC(=N)NC/C=C/C.O=C(O)C(F)(F)F`, for which the MIC came out at 2 µg/mL in assay [1]; 2 µg/mL in assay [2]; 2 µg/mL in assay [3]; 1 µg/mL in assay [4]; 2 µg/mL in assay [5]; 2 µg/mL in assay [6]. Besides, the MIC in assay [7] was 8 µg/mL; in assay [8], 16 µg/mL.

`CC(C)NC(=N)NCCCCCCCCN(CCCCCCCCNC(=N)N)C(=O)N(CCCCCCCCNC(=N)N)CCCCCCCCNC(=N)NC(C)C.O=C(O)C(F)(F)F`: the MIC is 0.5 µg/mL in assay [1]; 0.5 µg/mL in assay [2]; 0.5 µg/mL in assay [3]; 0.25 µg/mL in assay [4]; 0.5 µg/mL in assay [5]; 1 µg/mL in assay [6]. Further, the MIC in assay [7] and in assay [8] was 8 µg/mL each time.

For the compound `CN[C@H](CC(C)C)C(=O)N[C@H]1C(=O)N[C@@H](CC(N)=O)C(=O)N[C@H]2C(=O)N[C@H]3C(=O)N[C@H](C(=O)N[C@H](C(=O)O)c4cc(O)cc(O)c4-c4cc3ccc4O)[C@H](O)c3ccc(c(Cl)c3)Oc3cc2cc(c3O[C@@H]2O[C@H](CO)[C@@H](O)[C@H](O)[C@H]2O[C@H]2C[C@](C)(N)[C@H](O)[C@H](C)O2)Oc2ccc(cc2Cl)[C@H]1O` [VANCOMYCIN], the MIC is 0.5 µg/mL (≈ 0.345 µM) in assay [1], 1 µg/mL (≈ 0.69 µM) in assay [2] and 1 µg/mL (≈ 0.69 µM) in assay [3].

For the compound `O=C(O)C(F)(F)F.[N-]=[N+]=NCCCCCCCCN(CCCCCCCCNC(=N)NCC1CC1)C(=O)N(CCCCCCCCN=[N+]=[N-])CCCCCCCCNC(=N)NCC1CC1`, the minimal inhibitory concentration (MIC) in assay [1] was 32 µg/mL; in assay [2], 8 µg/mL; in assay [3] it was 8 µg/mL; in assay [4], 4 µg/mL; in assay [5], 16 µg/mL; in assay [6] it was 16 µg/mL. Further, the MIC in assay [7] is 64 µg/mL; in assay [8], 128 µg/mL.

As to `N=C(N)NCCCCCCCCN(CCCCCCCCNC(=N)NCC1CC1)C(=O)N(CCCCCCCCNC(=N)N)CCCCCCNC(=N)NCC1CC1.O=C(O)C(F)(F)F`, the MIC was found to be 4 µg/mL in assay [1]; 4 µg/mL in assay [2]; 4 µg/mL in assay [3]; 1 µg/mL in assay [4]; 8 µg/mL in assay [5]; 4 µg/mL in assay [6]. Moreover, the figures for the MIC in assay [7] and in assay [8] were 64 µg/mL and 128 µg/mL, respectively.

On to `N=C(N)NCCCCCCCCN(CCCCCCCCNC(=N)NC1CCCC1)C(=O)N(CCCCCCCCNC(=N)N)CCCCCCCCNC(=N)NC1CCCC1.O=C(O)C(F)(F)F`, for which the MIC in assay [1] was 1 µg/mL; in assay [2] it was 1 µg/mL; in assay [3], 1 µg/mL; in assay [4], 0.25 µg/mL; in assay [5], 1 µg/mL; in assay [6], 1 µg/mL. Also, the MIC in assay [7] came to 4 µg/mL; in assay [8] it was 8 µg/mL.
